Measurements from patent publication US9375388B2, “Nanoparticle based cosmetic composition” (Indian Institute of Technology, priority 2011, dated 2016).

Assay: Confocal laser scanning microscopy of skin penetration of dye
Type: in vitro ADME
Details: CLSM of rat skin, calcein dye (FIG. 2)
Excerpt: FIG. 2. CLSM image of rat skin: without calcein dye under (a) calcein filter (b) bright field; with free calcein solution under (c) calcein filter (d) bright field; with calcein-loaded SPC liposomes under (e) calcein filter (f) bright field.

## O=C(O)CN(CC(=O)O)Cc1cc2c(cc1O)Oc1cc(O)c(CN(CC(=O)O)CC(=O)O)cc1C21OC(=O)c2ccccc21 [free dye, calcein]
  Penetration of dye through skin: visible only at the surface of the skin and around the hair follicles
